# Data reported in patent publication US5494932A, “Sulfonic stilbene derivatives in the treatment of viral disease” (Merrell Dow Pharmaceuticals Inc., priority 1991, dated 1996).
# “And” between values parts separate entries of the source, which are not always exact repeats. Equal values may be shown once. Read-outs that look alike come from different tables or passages of the source.
# Assays:
# Type in all cases: cell-based, HIV-1 (human T cell line JM)
# [1] = tested on: HIV-1 strain GB8 in JM cells; experiment: Established HIV-1 (GB8) infection of JM cells, post-infection addition: syncytia and p24 antigen; conditions: for activity at 100 µg/mL: Human immunodeficiency virus 1, 75 h
# Description: The stilbene disulfonic acids blocked HIV-1 replication when the compounds were added within 2 hours of virus adsorption, i.e., prior to virus penetration, and the cells were cultured in the presence of the inhibitors. These compounds were next examined for antiviral activity at later stages of the infection process. At a MOI of 0.01 infectious units/cell (GB8 virus), viral glycoproteins appear at the surface of JM cells by 24 hours post-infection (p.i.) and initiate fusion with neighboring CD4^+ cells; the syncytial numbers show a good correlation with the production of cell-free virus (Tyms et al., 1990).
# In post-treatent experiments, cells were first infected with HIV-1 strain RF or GB8 for 2 hours at 37° C. at a MOI of 0.01 and allowed to grow for either 24 or 43 hours before replating into fresh growth medium containing 100 μg/ml of DIDS, H2 DIDS or SITS. Syncytia were then scored at 52 and 68 hours p.i. in triplicate, and p24 viral core antigen in culture fluids were assayed at 75 hours p.i. as described above.
# Protocol: JM cells were infected with HIV at a multiplicity of infection of 0.00025 syncytial forming units per cell. Virus adsorption was at room temperature for one hour. The cells were then washed three times and distributed in wells of a tissue culture plate at a concentration of 2×10^5 cells/well. Either DIDS, SITS or H2 DIDS (all at 100 μg/ml) were added to wells at 0, 24, 43 and 51 hours post-infection. As virus controls some wells had no drug added. Syncytia were scored at 43, 52 and 68 hours post-infection. The cell-free supernatant fluids of the virus control wells were harvested after 33, 43, 51, 68 and 75 hours post-infection. All other wells were harvested 75 hours post-infection. The supernatant fluid was then assayed for p24 viral core antigen.
# HIV-1 infected JM cells = experiment: Treatment of HIV-1 infected JM cells with DIDS, SITS and ddC; conditions: for Mean syncytia/well 3 days p.i. / Mean syncytia/well 4 days p.i. / p24 antigen 3 days p.i. / p24 antigen 4 days p.i.: 100 μg/ml
# Description: Protocol: JM cells were infected with HIV to give approximately 100 syncytia after 3 days. Virus adsorption was at room temperature for 2 hours. The cells were then washed thoroughly and distributed in wells of a tissue culture plate at a concentration of 1×10^5 cells/well. At 24 hours post infection either DIDS (100 μg/ml), SITS (100 μg/ml), or ddC (5 μM) were added to wells having infected cells. As virus controls, some wells had no drug added. At 42 hours post infection other wells received either ddC (5 μM), SITS (100 μg/ml), or DIDS (100, 50, 25, 12.5, 6.25 μg/ml). Syncytia were scored at 3 and 4 days post-infection and the supernatant fluids were harvested after 3 and 4 days for p24 core antigen determination.
# HIV-1 = experiment: Back titration of cell-free supernatants (infectivity) on fresh uninfected JM cells
# Description: Protocol: JM cells were infected with HIV-1 to give a multiplicity of infection of 0.001. Virus adsorption was for 2 hours at room temperature. The cells were washed and distributed into wells containing different concentrations of test compounds and incubated. After 2 days the cells were observed and syncytia were counted. The cell-free supernatant fluids were harvested at 4 and 6 days post infection and assayed for levels of p24 viral core antigen and after 6 days the supernatants were also titrated to determine levels of infectivity.
# *Syncytia-forming unit; cellfree supernatants from virus infected cells
# having received the indicated concentration of compounds were incubated
# with fresh uninfected JM cells and syncytia were scored to determine the
# number of infectious units/ml.
# supernatants from virusinfected control cells not having received drug
# [2] = tested on: HIV-1 strain GB8 in JM cells; experiment: Established HIV-1 (GB8) infection of JM cells, post-infection addition: syncytia and p24 antigen; conditions: 100 μg/ml
# [3] = 100 μg/ml, time of addition 0 h p.i.
# [4] = 100 μg/ml, time of addition 24h
# [5] = 100 μg/ml, time of addition 24 hours
# [6] = 100 μg/ml, time of addition 24 h p.i.
# [7] = 100 μg/ml, time of addition 43h
# [8] = 100 μg/ml, time of addition 43 hours
# [9] = 100 μg/ml, time of addition 43 h p.i.
# [10] = 100 μg/ml, time of addition 51h
# [11] = 100 μg/ml, time of addition 51 hours
# [12] = 100 μg/ml, time of addition 24 h p.i., read-out: P24 Antigen 75 h, % (drug-free medium 100%)
# [13] = 100 μg/ml, time of addition 43 h p.i., read-out: P24 Antigen 75 h, % (drug-free medium 100%)
compound,measurement,setting,value
"CC(=O)Nc1ccc(C=Cc2ccc(N=C=S)cc2S(=O)(=O)O)c(S(=O)(=O)O)c1 [SITS, 4-acetamido-4'-isothiocyanatostilbene-2,2'-disulfonic acid]",Mean Syncytia 68 hrs,"[1]; 100 μg/ml, time of addition 0h",27
same,P24 Antigen (75 hours post-infection),"[1]; 100 μg/ml, time of addition 0 hours",8680 pg/mL
same,P24 Antigen 75 h,[1]; [3],6.7 ng/mL
same,Syncytia at 52h,[1]; [3],4
same,Syncytia at 68h,[1]; [3],27
same,Mean Syncytia 68 hrs,[1]; [4],77
same,P24 Antigen (75 hours post-infection),[1]; [5],21669 pg/mL
same,P24 Antigen 75 h,[1]; [6],21.7 ng/mL
same,Syncytia at 52h,[1]; [6],35
same,Syncytia at 68h,[1]; [6],77
same,Mean Syncytia 51 hrs,[1]; [7],59
same,Mean Syncytia 68 hrs,[1]; [7],As VC
same,P24 Antigen (75 hours post-infection),[1]; [8],49245 pg/mL
same,P24 Antigen 75 h,[1]; [9],49.3 ng/mL
same,Syncytia at 52h,[1]; [9],59
same,Syncytia at 68h,[1]; [9],80
same,Mean Syncytia 68 hrs,[1]; [10],As VC
same,P24 Antigen (75 hours post-infection),[1]; [11],53830 pg/mL
same,activity at 100 µg/mL,[1]; [12],18.6%
same,activity at 100 µg/mL,[1]; [13],42.3%
same,activity at 100 µg/mL,"[1]; read-out: P24 Antigen 75 h, % (drug-free medium 100%), 100 μg/ml, time of addition 0 h p.i.",7.4%
same,activity at 100 µg/mL,"[1]; read-out: P24 Antigen (75 hours post-infection), %, 100 μg/ml, time of addition 0 hours",7.4%
same,activity at 100 µg/mL,"[1]; read-out: P24 Antigen (75 hours post-infection), %, 100 μg/ml, time of addition 24 hours",18.6%
same,activity at 100 µg/mL,"[1]; read-out: P24 Antigen (75 hours post-infection), %, 100 μg/ml, time of addition 43 hours",42.3%
same,activity at 100 µg/mL,"[1]; read-out: P24 Antigen (75 hours post-infection), %, 100 μg/ml, time of addition 51 hours",47.2%
same,relative order of antiviral potency,[1]; established HIV-1 infections,DIDS>H2 DIDS>>SITS
same,anti-syncytial activity relative to virus control,[1]; established infection,no anti-syncytial activity
same,p24 antigen (in words),[1]; established infection,slightly reduced
same,Mean syncytia/well 3 days p.i.,HIV-1 infected JM cells; added 24 hr,As VC
same,Mean syncytia/well 4 days p.i.,HIV-1 infected JM cells; added 24 hr,As VC
same,p24 antigen 3 days p.i.,HIV-1 infected JM cells; added 24 hr,18000 pg/mL
same,p24 antigen 4 days p.i.,HIV-1 infected JM cells; added 24 hr,62500 pg/mL
same,Mean syncytia/well 3 days p.i.,HIV-1 infected JM cells; added 42 hr,As VC
same,Mean syncytia/well 4 days p.i.,HIV-1 infected JM cells; added 42 hr,As VC
same,p24 antigen 3 days p.i.,HIV-1 infected JM cells; added 42 hr,7000 pg/mL
same,p24 antigen 4 days p.i.,HIV-1 infected JM cells; added 42 hr,95000 pg/mL
same,activity at 100 µg/mL,"HIV-1 infected JM cells; Human immunodeficiency virus 1, 72 h, read-out: p24 antigen 3 days p.i., % control, 100 μg/ml, added 24 hr",38%
same,activity at 100 µg/mL,"HIV-1 infected JM cells; Human immunodeficiency virus 1, 72 h, read-out: p24 antigen 3 days p.i., % control, 100 μg/ml, added 42 hr",15%
same,activity at 100 µg/mL,"HIV-1 infected JM cells; Human immunodeficiency virus 1, 96 h, read-out: p24 antigen 4 days p.i., % control, 100 μg/ml, added 24 hr",70%
same,activity at 100 µg/mL,"HIV-1 infected JM cells; Human immunodeficiency virus 1, 96 h, read-out: p24 antigen 4 days p.i., % control, 100 μg/ml, added 42 hr",> 100%
same,Back titration of cell-free supernatants at 6 days p.i.,HIV-1; 25 μg/ml,1.9 × 10^3 SFUs/ml and 2.5 × 10^3 SFUs/ml
same,Back titration of cell-free supernatants at 6 days p.i.,HIV-1; 100 μg/ml,< 10^1 SFUs/ml
same,viral infectivity in the cell-free supernatants,HIV-1; data not shown,absence of viral infectivity
same,Mean Syncytia 51 hrs,[2]; time of addition 0h,4
same,Mean Syncytia 51 hrs,[2]; time of addition 24h,35
"O=S(=O)(O)c1cc(N=C=S)ccc1CCc1ccc(N=C=S)cc1S(=O)(=O)O [H2 DIDS, 4,4'-diisothiocyanatodihydrostilbene-2,2'-disulfonic acid]",Mean Syncytia 68 hrs,"[1]; 100 μg/ml, time of addition 0h",0
same,P24 Antigen 75 h,[1]; [3],Neg
same,Syncytia at 52h,[1]; [3],0
same,Syncytia at 68h,[1]; [3],0
same,Mean Syncytia 68 hrs,[1]; [4],0
same,P24 Antigen (75 hours post-infection),[1]; [5],2363 pg/mL
same,P24 Antigen 75 h,[1]; [6],2.4 ng/mL
same,Syncytia at 52h,[1]; [6],0
same,Syncytia at 68h,[1]; [6],0
same,Mean Syncytia 51 hrs,[1]; [7],19
same,Mean Syncytia 68 hrs,[1]; [7],3
same,P24 Antigen (75 hours post-infection),[1]; [8],16412 pg/mL
same,P24 Antigen 75 h,[1]; [9],16.4 ng/mL
same,Syncytia at 52h,[1]; [9],19
same,Syncytia at 68h,[1]; [9],3
same,Mean Syncytia 68 hrs,[1]; [10],15
same,P24 Antigen (75 hours post-infection),[1]; [11],42020 pg/mL
same,activity at 100 µg/mL,"[1]; 100 μg/ml, time of addition 0 hours, read-out: P24 Antigen (75 hours post-infection), %",< 1%
same,activity at 100 µg/mL,"[1]; 100 μg/ml, time of addition 0 h p.i., read-out: P24 Antigen 75 h, % (drug-free medium 100%)",0%
same,activity at 100 µg/mL,"[1]; 100 μg/ml, time of addition 24 hours, read-out: P24 Antigen (75 hours post-infection), %",2%
same,activity at 100 µg/mL,[1]; [12],2%
same,activity at 100 µg/mL,"[1]; 100 μg/ml, time of addition 43 hours, read-out: P24 Antigen (75 hours post-infection), %",14%
same,activity at 100 µg/mL,[1]; [13],14%
same,activity at 100 µg/mL,"[1]; 100 μg/ml, time of addition 51 hours, read-out: P24 Antigen (75 hours post-infection), %",36%
same,Mean Syncytia 51 hrs,[2]; time of addition 0h,0
same,Mean Syncytia 51 hrs,[2]; time of addition 24h,0
